Assay results as given in US20090123904A1, “COMPOSITION FOR PRESERVING CELLS, TISSUES, OR ORGANS, PRODUCTION PROCESS AND USES” (BIOCYDEX, SOCIETE PAR ACTIONS SIMPLIFIEE, priority 2007, published 2009).

Assay: Dissolution of the powder in ViaSpan preservation medium
Format: physicochemical
Settings: in 10 ml of ViaSpan preservation medium, 100×-concentrated solution
Procedure: The production process consists in taking up 15.77 mg of propane diamine-β-CD in powder form in 10 ml of the preservation medium ViaSpan® to obtain a 100×-concentrated solution.
The preparation of the close mixture is carried out according to the following operating procedure: • 4.57 mg of resveratrol is added to 9 ml of a solution that contains 2495.3 mg of propane diamine-β-CD in water, • The pH is adjusted to 7.4, • The whole is stirred for 5 to 24 hours at 24° C. and in the absence of light, • The solution is next filtered in a Millipore hydrophilic PVDF filter and then freeze-dried to provide a powder that contains a close mixture whose resveratrol/propane diamine-β-CD molar ratio is 1/111, • The freeze-dried close mixture is preserved in amber bottles at 4° C., • 15.8 mg of the close mixture is then taken up in 10 ml of the ViaSpan® preservation medium to obtain a 100×-concentrated solution.

Dissolution of the powder: dissolves instantaneously
Compound: NCCCNCC1OC2OC3C(CO)OC(OC4C(CO)OC(OC5C(CO)OC(OC6C(CO)OC(OC7C(CO)OC(OC8C(CO)OC(OC1C(O)C2O)C(O)C8O)C(O)C7O)C(O)C6O)C(O)C5O)C(O)C4O)C(O)C3O (stereo not drawn) [propane diamine-β-CD, 6A-(3-aminopropylamino)-6A-deoxy-cyclomatoheptaose]
